According to patent publication US20240191211A1, “BIOLUMINESCENCE-TRIGGERED PHOTOCATALYTIC LABELING” (Promega Corporation, priority 2022, published 2024):
Where “and” joins values, the source holds several entries; their conditions need not be identical. Equal entries are not always repeated.

Legend:
[1] = Absorbance profile of photoreactive-biotins; type: physicochemical
Protocol: Absorbance profiles for 4 mM phenyl-diazirine-biotin and 20-fold lower concentration of phenyl-azide-biotin (i.e., 200 µM) in 8% or 1% DMSO, respectively, were monitored on a SPARK multimode plate reader (FIG. 20B).
Experiments were conducted during development of embodiments herein to explore structural modifications to the phenyl-azide moiety that could decrease the lifetime of its photogenerated intermediates thereby reducing light-dependent background and increasing labeling specificity. Modifications causing red shift absorbance and subsequently lower triplet state energy thereby enabling more efficient bioluminescence-triggered photocatalytic activation were also explored. […]
The structures of the vinyl-naphthyl-azide-biotins and vinyl-quinoline-azide-biotins are shown in FIG. 26A, and their syntheses are included in Example 13. Absorbance profiles for 200 μM activatable labels in 2% DMSO were monitored on a SPARK multimode plate reader (FIG. 26 B-C). […] The naphthyl-azide analogs were further evaluated for their capacity to undergo bioluminescence-triggered photocatalytic protein labeling as well as for their light-dependent, light-independent, and catalyst-independent backgrounds (FIG. 26D). […] To evaluate labeling efficiencies, samples were collected, resolved on SDS-PAGE, transferred to nitrocellulose membranes, and analyzed as described in Example 1. […]

[2] = test system: K562 cell lysate depleted of biotinylated proteins; assay: Photocatalytic protein labeling with azide-biotin analogs driven by HT178-cpNLuc-179:Ir-9049 in K562 lysate; type: biochemical; conditions: for light-independent background: 45 minutes incubation; for light-dependent background: LED 455 nm 10 minutes versus bioluminescence 20 minutes
Source text: To evaluate labeling efficiency, samples were collected, resolved on SDS-PAGE, transferred to a nitrocellulose membrane, and analyzed as described in Example 1. Unlike diazirene, light independent as well as light-dependent background was apparent for both LED and bioluminescence. […] These longer-lived intermediates can diffuse further before being quenched by water resulting in overall greater labeling radius and increased light-dependent background.
The aryl-azide-biotin analogs were further evaluated for efficiency and specificity of bioluminescence-triggered photocatalytic protein labeling as well as light-independent background (FIG. 21D). […] Samples were then collected, resolved on SDS-PAGE, transferred to a nitrocellulose membrane, and analyzed as described in Example 1. […] In addition, several substitutions to the phenyl ring increased labeling specificity to different extent likely by impeding the generation-kinetics and/or lifetime of the reactive intermediates resulting with an overall smaller labeling radius.
Subsequently, LED-triggered photocatalytic labeling of the proximal HT178-cpNLuc-179 was detected for all three analogs albeit with high light-dependent background. […] In addition, lifetime of photogenerated reactive intermediates resulted with a range of labeling specificities that would be useful for different applications designed to label a specific protein versus a neighboring environment.
The structures of the vinyl-naphthyl-azide-biotins and vinyl-quinoline-azide-biotins are shown in FIG. 26A, and their syntheses are included in Example 13. Absorbance profiles for 200 μM activatable labels in 2% DMSO were monitored on a SPARK multimode plate reader (FIG. 26 B-C). […] The naphthyl-azide analogs were further evaluated for their capacity to undergo bioluminescence-triggered photocatalytic protein labeling as well as for their light-dependent, light-independent, and catalyst-independent backgrounds (FIG. 26D). […] Bioluminescence was induced upon treatment with 100 μM fluorofurimazine for 20 minutes. To evaluate labeling efficiencies, samples were collected, resolved on SDS-PAGE, transferred to nitrocellulose membranes, and analyzed as described in Example 1. […] Furthermore, a methyl substitution on the vinyl group designed to inhibit Michael addition reduced background, especially for 9615, and increased labeling specificity. This reduced background was generally associated with a blue-shifted absorbance relative to the equivalent vinyl-naphthyl-azide analog.

[3] = test system: DNA and RNA; assay: LED-triggered singlet oxygen-dependent labeling of DNA and RNA; type: biochemical; conditions: compared to Ir-9049 driven activation of vinyl-naphthyl-azides and vinyl-quinoline-azides
Protocol: Plates remained in the dark (control) or irradiated at 455 nm (2% LED; ˜1.6 W) for 20 minutes using Efficiency Aggregators biophotoreactor. To evaluate covalent crosslinking efficiencies, reactions were cleaned from non-crosslinked activatable labels using Zeba column (ThermoFisher) before being spotted on nitrocellulose membranes using a slot blot apparatus. Membranes were blocked with 5% BSA (Promega) in TBST for 1 hour at room temperature and then incubated overnight at 4° C. with anti-biotin antibody (Invitrogen) in TBST. Next day, membranes were washed three times with TBST and then incubated for an hour with a secondary anti-goat-HRP-antibody (Jackson laboratories). Following three washes in TBST, membranes were treated with ECL substrate (Promega) and scanned on the chemiluminescence channel to detect DNA or RNA labeled with biotin.

[4] = test system: K562 cell lysate depleted of biotinylated proteins; assay: Bioluminescence-triggered photocatalytic protein labeling with diazirine-biotin in K562 lysate; type: biochemical
Protocol: The two fusions orientations were further tethered to chloroalkane-catalyst conjugates and compared for their capacity to drive bioluminescence-triggered photocatalytic protein labeling (FIG. 16B). […] Bioluminescence was induced upon treatment with 10× fluorofurimazine at a final concentration of 100 µM while control wells remained untreated. Following a 15 minutes incubation, samples were collected, resolved on SDS-PAGE, transferred to a nitrocellulose membrane, and analyzed as described in Example 1. […]
Reactions comprising 100 μM diazirine-biotin, 0.1 mg/mL K562 cell lysate depleted of biotinylated proteins, and 60 nM conjugate were assembled in TBS pH 7.5 within wells of a white 96-well plate. […] Following a 15 minutes incubation, samples were collected, resolved on SDS-PAGE, transferred to a nitrocellulose membrane, and analyzed as described in Example 1. […]
This example summarizes the optimization of the bioluminescent photocatalytic system that provided an overall 900-fold increase in bioluminescence-triggered photocatalytic protein labeling (FIG. 18). […] Following a 20-minutes incubation, samples were collected, resolved on SDS-PAGE, transferred to a nitrocellulose membrane, and analyzed as described in Example 1 (FIG. 18A). […]

[5] = test system: FKBP-HiBiT; assay: Photocatalytic labeling upon complementation of FKBP-HiBiT with LgBiT-HaloTag:Ir-9049; type: biochemical; conditions: HEK293 cell lysate; LED, furimazine or fluorofurimazine
Protocol: HEK293 cell lysate with estimated expression of 2000 nM FKBP-HiBiT was serially diluted into control HEK293 cell lysate to generate 4× lysate solutions with expression levels of 960 nM, 480 nM, 240 nM, and […] while maintaining constant concentration of total proteins. […] Following treatment with 10× diazirine-biotin at a final concentration of […], the UV-transparent plates were subjected to 455 nm radiation at 0-3.2 W for 15 min (Efficiency Aggregators biophotoreactor), and the white plate were further treated for 30 minutes with either furimazine or fluorofurimazine at a final concentration of 100 µM while control wells remained untreated. Samples were then collected, resolved on SDS-PAGE, transferred to a nitrocellulose membrane, and analyzed as described in Example 1. Light-dependent labeling of both LgBiT-HaloTag and FKBP-HiBiT were detected upon radiation or treatment with either furimazine or fluorofurimazine.

For `[N-]=[N+]=Nc1ccc2cc(C(=O)NCCOCCOCCOCCOCCNC(=O)CCCC[C@@H]3SC[C@@H]4NC(=O)N[C@@H]43)ccc2c1` [Compound 9043], the “absorbance λmax” value ([1]; 200 μM in 2% DMSO) was 255 nm and 305 nm and the light-independent background [2] was “significantly decreased”.
With `[N-]=[N+]=Nc1ccc(C(=O)NCCOCCOCCOCCOCCNC(=O)CCCC[C@@H]2SC[C@@H]3NC(=O)N[C@@H]32)c(O)c1` [Compound 9046] the light-independent background [2] was “significantly decreased”.
In the case of `[N-]=[N+]=Nc1ccc(C(=O)NCCOCCOCCOCCOCCNC(=O)CCCC[C@@H]2SC[C@@H]3NC(=O)N[C@@H]32)cc1` [Compound 9069], the “labeling of proximal model protein and background” value ([2]; LED or bioluminescence, NanoLuc-HaloTag:Ir-9049 or HT178-cpNLuc-179:Ir-9049) is reported as “relatively high background”.
In the case of `C/C(=C\C(=O)NCCOCCOCCOCCOCCNC(=O)CCCC[C@@H]1SC[C@@H]2NC(=O)N[C@@H]21)c1ccc(N=[N+]=[N-])cc1` [Compound 9162], the red shift absorbance ([1]; aryl-azide analogs compared to phenyl-azide-biotin 9069) is reported as 20 nm, the light-independent background [2] is reported as “significantly decreased” and the light-dependent background [2] is reported as “highest light-dependent background”.
With `C/C(=C\C(=O)NCCOCCOCCOCCOCCNC(=O)CCCC[C@@H]1SC[C@@H]2NC(=O)N[C@@H]21)c1ccc(N=[N+]=[N-])c(C#N)c1` [Compound 9422, N-((E)-18-(4-azido-3-cyanophenyl)-16-oxo-3,6,9,12-tetraoxa-15-azanonadec-17-en-1-yl)-5-((3aS,4S,6aR)-2-oxohexahydro-1H-thieno[3,4-d]imidazol-4-yl)pentanamide] the light-independent background [2] was “significantly decreased” and the light-dependent background [2] was “significantly reduced light-dependent background”.
In the case of `O=C(NCCOCCOCCCCCCCl)OCCOCCOCCOCCNC(=O)c1ccc2c(c1)C(=O)OC21c2ccc(O)c(Br)c2Oc2c1ccc(O)c2Br` [PS-9850], the “nucleic acid labeling via singlet oxygen generation” value [3] is reported as “lower efficiencies”.
With `Nc1cccc(-c2cn3c(=O)c(Cc4ccco4)nc-3c(Cc3ccccc3F)[nH]2)c1F` [fluorofurimazine] the “increase in total light output” value ([4]; filtered luminescence 610 nm/LP accumulated over 20 minutes, versus furimazine) was 5 fold, the “increase in protein labeling” value ([4]; relative to preceding optimization step, 20 minutes) was 5 fold and the “labeling of LgBiT-HaloTag and FKBP-HiBiT” value [5] was “Highest labeling”.
